According to patent US20050032908A1, “Methods for treating metabolic syndrome” (priority 2003, published 2005):
Read-outs that look alike come from different tables or passages of the source.

Tests used:
[1] = compared to placebo; cited from earlier work
[2] = Pooled analysis of double-blind, placebo-controlled, non-diabetic studies of at least 6 months duration in subjects with metabolic syndrome at baseline; type: in vivo, human; settings: compared to placebo; change from baseline to latest assessment after month 6 up to month 12
Source text: (§1) The benefits of sibutramine therapy can be extended to subjects with metabolic syndrome. The treatment effect of sibutramine on subjects that had metabolic syndrome at study entry in the STORM trial and by a pooled analysis of double-blind, placebo-controlled, non-diabetic studies of at least 6 months duration were studied. Subjects were identified who had increased abdominal obesity (waist circumference), decreased HDL cholesterol, and elevated triglycerides (TG) at baseline, and who also completed at least 6 months of sibutramine treatment (pooled analysis subjects: 266 sibutramine, 134 placebo; STORM: 80 sibutramine). Since all subjects in the STORM trial received sibutramine for the first 6 months of the study, only subjects subsequently randomized to receive sibutramine for a longer duration were included. The analyses for each variable were based on change from baseline to latest assessment after month 6, up to and including month 12.

[3] = cited from earlier work
[4] = STORM trial subjects that had metabolic syndrome at study entry; type: in vivo, human; settings: sibutramine treatment group, 80 subjects; change from baseline to latest assessment after month 6 up to month 12
Source text: as §1

[5] = subjects who lost and maintained weight, compared to the baseline values of all subjects

CC(C)CC(N(C)C)C1(c2ccc(Cl)cc2)CCC1 (centres unmarked) [sibutramine, N,N-dimethyl-1-[1-(4-chlorophenyl)cyclobutyl]-3-methylbutylamine]
HDL cholesterol [1]: significant improvements
fasting blood glucose levels [1]: not significantly changed
insulin levels [1]: significant improvements
triglyceride levels [1]: significant improvements
waist circumference (a measure for abdominal obesity) [1]: significant improvements
HDL [2]: clinically and statistically significant improvements
TG [2]: clinically and statistically significant improvements
waist circumference [2]: clinically and statistically significant improvements
weight loss [2]: clinically and statistically significant improvements
subjects who maintained ≧10% weight reduction ([3]; at the end of two years of treatment, placebo 21%): 46%
subjects who maintained ≧5% weight reduction ([3]; at the end of two years of treatment, placebo 44%): 69%
mean fasting insulin levels ([3]; at two years): reduced
subjects who completed the trial and maintained at least 80% of their month six weight loss ([3]; at two years, placebo 16%): 43%
mean weight loss ([3]; first six months, subjects achieving ≧5% weight reduction): 26 lbs
subjects who achieved a ≧5% weight reduction ([3]; of the 499 subjects who completed the first six months, sibutramine with reduced calorie diet and increased physical activity): 94%
HDL cholesterol [3, 5]: clinically and statistically significant improvements
triglycerides [3, 5]: clinically and statistically significant improvements
waist circumference [3, 5]: clinically and statistically significant improvements
impaired fasting glucose ([3]; two years): significantly changed
HDL [4]: favorable changes
TG [4]: favorable changes
waist circumference [4]: favorable changes
weight loss [4]: favorable changes
